Legend:
HL-60, TB = assay: NCI one-dose screening, leukemia HL-60, TB; type: cell-based, human; conditions: HL-60(TB)
PRMI-8226 cell line = assay: NCI one-dose screening, leukemia PRMI-8226; type: cell-based, human; conditions: RPMI-8226, 10 μM
K562cell line = assay: NCI one-dose screening, leukemia K562; type: cell-based, human; conditions: K562, 10 μM
EKVX = assay: NCI one-dose screening, non-small cell lung cancer EKVX; type: cell-based, human; conditions: EKVX
NCI-H522 = assay: NCI one-dose screening, non-small cell lung cancer NCI-H522; type: cell-based, human; conditions: NCI-H522, 10 μM
HT29 = assay: NCI one-dose screening, colon cancer HT29; type: cell-based, human; conditions: HT29, 10 μM
SF-268 = assay: NCI one-dose screening, CNS cancer SF-268; type: cell-based, human; conditions: SF-268, 10 μM
SF-295 = assay: NCI one-dose screening, CNS cancer SF-295; type: cell-based, human; conditions: SF-295, 10 μM
U251 = assay: NCI one-dose screening, CNS cancer U251; type: cell-based, human; conditions: U251, 10 μM
MALME-3M = assay: NCI one-dose screening, melanoma MALME-3M; type: cell-based, human; conditions: MALME-3M
UACC-62 = assay: NCI one-dose screening, melanoma UACC-62; type: cell-based, human; conditions: UACC-62, 10 μM
SK-MEL-2 = assay: NCI one-dose screening, melanoma SK-MEL-2; type: cell-based, human; conditions: SK-MEL-2, 10 μM
IGROV1 = assay: NCI one-dose screening, ovarian cancer IGROV1; type: cell-based, human; conditions: IGROV1, 10 μM
OVCAR-4 = assay: NCI one-dose screening, ovarian cancer OVCAR-4; type: cell-based, human; conditions: OVCAR-4, 10 μM
TK-10 = assay: NCI one-dose screening, renal cancer TK-10; type: cell-based, human; conditions: TK-10, 10 μM
HOP-92 = assay: NCI one-dose screening, non-small cell lung cancer HOP-92; type: cell-based, human; conditions: HOP-92, 10 μM

Row | SMILES | Growth Percent (10 μM) (HL-60, TB) | Growth Percent (10 μM) (PRMI-8226 cell line) | Growth Percent (10 μM) (K562cell line) | Growth Percent (10 μM) (EKVX) | Growth Percent (10 μM) (NCI-H522) | Growth Percent (10 μM) (HT29) | Growth Percent (10 μM) (SF-268) | Growth Percent (10 μM) (SF-295) | Growth Percent (10 μM) (U251) | Growth Percent (10 μM) (MALME-3M) | Growth Percent (10 μM) (UACC-62) | Growth Percent (10 μM) (SK-MEL-2) | Growth Percent (10 μM) (IGROV1) | Growth Percent (10 μM) (OVCAR-4) | Growth Percent (10 μM) (TK-10) | melting point | Growth Percent (10 μM) (HOP-92)
1 | Cc1ccc(Nc2cc3c(c4nsnc24)C(=O)c2ccccc2C3=O)cc1 [C64, 4-(p-tolylamino)anthra[2,1-c][1,2,5] thiadiazol-6,11-dione] | 46.13% | 21.59% | 33.45% | 82.17% | 53.06% | 96.29% | 52.27% | 75.76% | 34.17% | 78.41% | 67.41% | 93.85% | 49.40% | 31.44% | 95.15% | – | –
2 | CC(C)Sc1cc2c(c3nsnc13)C(=O)c1ccccc1C2=O [C18, 4-(isopropylthio)anthra[2,1-c][1,2,5] thiadiazol-6,11-dione] | −41.24% | −38.03% | −26.17% | −6.58% | −59.54% | 48.08% | 7.06% | −16.57% | −23.10% | −86.04% | −57.09% | −55.62% | −32.91% | −100.00% | 30.33% | 193 to 194 °C | –
3 | O=C1c2ccccc2C(=O)c2c1cc(N1CCCC1)c1nsnc21 [C7, 4-(pyrrolidine-1-yl)anthra-[2,1-c][1,2,5] thiadiazol-6,11-dione] | 104.58% | 76.16% | 75.50% | 75.67% | 83.41% | 98.60% | 98.43% | 87.02% | 80.49% | 70.73% | 95.64% | 115.43% | 75.83% | 77.50% | 141.01% | – | –
4 | CN(C)CCNc1cc2c(c3nsnc13)C(=O)c1ccccc1C2=O [C8] | −10.38% | −29.81% | −24.44% | −25.35% | −91.81% | −45.50% | −14.54% | −55.73% | −55.42% | −85.22% | −47.85% | −66.52% | −28.40% | −71.27% | −35.59% | – | −25.30%
